27 compounds from US7253187B2, “Heterocyclic inhibitors of ERK2 and uses thereof” (Vertex Pharmaceuticals Incorporated, priority 2001, dated 2007) can be followed below.

One test deals with ERK2 (Homo sapiens, UniProt P28482). Description: ERK2 inhibition assay (spectrophotometric coupled-enzyme assay). Particulars: read-out: ERK2 Inhibitory Activity (Ki class D-F). It is filed as biochemical. As to the method:
The IC50 was evaluated from the rate data as a function of inhibitor concentration. […] The compound numbers correspond to the compound numbers in Table 1.

For the next test, the target named is T1, GSK-3β (AA 1–420) (Homo sapiens, UniProt P49841).
T1 construct: GSK-3β (AA 1–420)
In words: GSK-3 inhibition assay (coupled enzyme system). Format: biochemical. Particulars: read-out: GSK3 Inhibitory Activity (Ki class). As for the experimental part:
Final substrate concentrations in the assay were 20 μM ATP (Sigma Chemicals, St Louis, Mo.) and 300 μM peptide (HSSPHQS(PO3H2)EDEEE, American Peptide, Sunnyvale, Calif.). Reactions were carried out at 30° C. and 20 nM GSK-3β. Final concentrations of the components of the coupled enzyme system were 2.5 mM phosphoenolpyruvate, 300 μM NADH, 30 μg/ml pyruvate kinase and 10 μg/ml lactate dehydrogenase.
An assay stock buffer solution was prepared containing all of the reagents listed above with the exception of ATP and the test compound of interest. The assay stock buffer'solution (175 μl) was incubated in a 96 well plate with 5 μl of the test compound of interest at final concentrations spanning 0.002 μM to 30 μM at 30° C. for 10 min. […] The reaction was initiated by the addition of 20 μl of ATP (final concentration 20 μM). Rates of reaction were obtained using a Molecular Devices Spectramax plate reader (Sunnyvale, Calif.) over 10 min at 30° C. The Ki values were determined from the rate data as a function of inhibitor concentration.
The compound numbers correspond to the compound numbers in Table 1.

Chain of ERK2 (P28482 whole entry): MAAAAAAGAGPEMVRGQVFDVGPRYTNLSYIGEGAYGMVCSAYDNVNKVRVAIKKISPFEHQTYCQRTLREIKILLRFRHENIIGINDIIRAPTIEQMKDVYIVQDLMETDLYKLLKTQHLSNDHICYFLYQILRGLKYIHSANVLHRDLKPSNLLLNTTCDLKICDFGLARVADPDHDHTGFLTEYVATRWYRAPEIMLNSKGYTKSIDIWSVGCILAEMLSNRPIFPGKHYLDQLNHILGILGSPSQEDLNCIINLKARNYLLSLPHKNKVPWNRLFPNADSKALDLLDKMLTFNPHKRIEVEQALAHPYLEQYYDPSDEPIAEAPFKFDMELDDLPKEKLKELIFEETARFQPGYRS
T1 sequence (P49841 whole entry, species assumed, the tested form may be a part): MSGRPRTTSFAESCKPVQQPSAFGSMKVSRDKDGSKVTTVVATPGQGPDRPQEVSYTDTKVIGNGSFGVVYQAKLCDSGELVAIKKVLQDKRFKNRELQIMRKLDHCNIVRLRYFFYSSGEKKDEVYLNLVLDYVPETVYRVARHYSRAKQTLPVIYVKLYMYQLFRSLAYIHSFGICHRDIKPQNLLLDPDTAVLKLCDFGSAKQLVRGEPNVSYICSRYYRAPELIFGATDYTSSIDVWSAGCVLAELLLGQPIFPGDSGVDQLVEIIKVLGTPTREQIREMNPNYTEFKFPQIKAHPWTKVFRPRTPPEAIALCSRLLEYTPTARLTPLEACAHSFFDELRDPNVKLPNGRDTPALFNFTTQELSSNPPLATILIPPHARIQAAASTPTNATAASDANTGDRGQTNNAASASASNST

As usually defined, the Ki is the dissociation constant of the complex between target and ligand, obtained from inhibition or displacement. Consider `Cc1cccc(C(CO)NC(=O)c2cc(-c3nc(Nc4cccc(C)c4C)ncc3C)c[nH]2)c1` (stereo not shown) [III-a-211, 4-[2-(2,3-Dimethyl-phenylamino)-5-methyl-pyrimidin-4-yl]-1H-pyrrole-2-carboxylic acid (2-hydroxy-1-m-tolyl-ethyl)-amide], for which the figures for the Ki on ERK2 and on GSK-3β (AA 1–420) were below 0.1 µM and 0.1 to 1 µM, respectively.

Consider `CCNc1ncc(C)c(-c2c[nH]c(C(=O)NC(CO)c3cccnc3)c2)n1` (stereo not shown) [III-a-188, 4-(2-Ethylamino-5-methyl-pyrimidin-4-yl)-1H-pyrrole-2-carboxylic acid (2-hydroxy-1-pyridin-3-yl-ethyl)-amide], for which the Ki at ERK2 was 0.1 to 1 µM; at GSK-3β (AA 1–420), above 1 µM.

In the case of `Cc1cnc(NCC2CCCO2)nc1-c1c[nH]c(C(=O)NC(CO)c2ccccc2)c1` (stereo not shown) [III-a-217, 4-{5-Methyl-2-((tetrahydro-furan-2-ylmethyl)-amino]-pyrimidin-4-yl}-1H-pyrrole-2-carboxylic acid (2-hydroxy-1-phenyl-ethyl)-amide], the Ki at ERK2 and at GSK-3β (AA 1–420) was below 0.1 µM throughout.

Turning to `CONc1ncc(C)c(-c2c[nH]c(C(=O)NC(CO)c3ccccc3)c2)n1` (stereo not shown) [III-a-206, 4-(2-Methoxyamino-5-methyl-pyrimidin-4-yl)-1H-pyrrole-2-carboxylic acid (2-hydroxy-1-phenyl-ethyl)-amide], the Ki on ERK2 and at GSK-3β (AA 1–420) was below 0.1 µM in each case.

In the case of `Cc1cccc(C(CO)NC(=O)c2cc(-c3nc(Nc4ccccc4C)ncc3C)c[nH]2)c1` (stereo not shown) [III-a-223, 4-(5-Methyl-2-o-tolylamino-pyrimidin-4-yl)-1H-pyrrole-2-carboxylic acid (2-hydroxy-1-m-tolyl-ethyl)-amide], the Ki at ERK2 and at GSK-3β (AA 1–420) was below 0.1 µM each time.

For `Cc1cnc(NCC(C)O)nc1-c1c[nH]c(C(=O)NC(CO)c2ccccc2)c1` (stereo not shown) [III-a-178, 4-[2-(2-Hydroxy-propylamino)-5-methyl-pyrimidin-4-yl]-1H-pyrrole-2-carboxylic acid (2-hydroxy-1-phenyl-ethyl)-amide], the inhibition constant Ki at ERK2 is below 0.1 µM; on GSK-3β (AA 1–420), 0.1 to 1 µM.

For `Cc1ccc(C(CO)NC(=O)c2cc(-c3nc(Nc4ccccc4)ncc3C)c[nH]2)cc1F` (stereo not shown) [III-a-145, 4-(5-Methyl-2-phenylamino-pyrimidin-4-yl)-1H-pyrrole-2-carboxylic acid [1-(3-fluoro-4-methyl-phenyl)-2-hydroxy-ethyl]-amide], the Ki on ERK2 and on GSK-3β (AA 1–420) was below 0.1 µM in each case.

For the compound `CCNc1ncc(COC)c(-c2c[nH]c(C(=O)NC(CO)c3ccccc3)c2)n1` (stereo not shown) [III-a-187, 4-(2-Ethylamino-5-methoxymethyl-pyrimidin-4-yl)-1H-pyrrole-2-carboxylic acid (2-hydroxy-1-phenyl-ethyl)-amide], on GSK-3β (AA 1–420), the Ki is above 1 µM.

`Cc1ccc(C(CO)NC(=O)c2cc(-c3nc(Nc4cccc(F)c4)ncc3C)c[nH]2)cc1F` (stereo not shown) [III-a-147, 4-[2-(3-Fluoro-phenylamino)-5-methyl-pyrimidin-4-yl]-1H-pyrrole-2-carboxylic acid [1-(3-fluoro-4-methyl-phenyl)-2-hydroxy-ethyl]-amide]: the Ki on ERK2 and on GSK-3β (AA 1–420) was below 0.1 µM throughout.

In the case of `Cc1cccc(C(CO)NC(=O)c2cc(-c3nc(Nc4cccc(F)c4)ncc3C)c[nH]2)c1` (stereo not shown) [III-a-212, 4-[2-(3-Fluoro-phenylamino)-5-methyl-pyrimidin-4-yl]-1H-pyrrole-2-carboxylic acid (2-hydroxy-1-m-tolyl-ethyl)-amide], the Ki on ERK2 and on GSK-3β (AA 1–420) was below 0.1 µM each time.

Turning to `Cc1ccccc1Nc1ncc(C)c(-c2c[nH]c(C(=O)NC(CO)c3cccc(Cl)c3)c2)n1` (stereo not shown) [III-a-224, 4-(5-Methyl-2-o-tolylamino-pyrimidin-4-yl)-1H-pyrrole-2-carboxylic acid [1-(3-chloro-phenyl)-2-hydroxy-ethyl]-amide], the Ki at GSK-3β (AA 1–420) is below 0.1 µM.

On to `Cc1cccc(C(CO)NC(=O)c2cc(-c3nc(NC(C)CO)ncc3C)c[nH]2)c1` (stereo not shown) [III-a-222, 4-[2-(2-Hydroxy-1-methyl-ethylamino)-5-methyl-pyrimidin-4-yl]-1H-pyrrole-2-carboxylic acid (2-hydroxy-1-m-tolyl-ethyl)-amide], for which the Ki at ERK2 was below 0.1 µM; at GSK-3β (AA 1–420), 0.1 to 1 µM.

Regarding `Cc1cnc(NOCCO)nc1-c1c[nH]c(C(=O)NC(CO)c2ccccc2)c1` (stereo not shown) [III-a-225, 4-[2-(2-Hydroxy-ethoxyamino)-5-methyl-pyrimidin-4-yl]-1H-pyrrole-2-carboxylic acid (2-hydroxy-1-phenyl-ethyl)-amide], the Ki at ERK2 and at GSK-3β (AA 1–420) was below 0.1 µM in each case.

As for `Cc1cccc(C(CO)NC(=O)c2cc(-c3nc(Nc4ccccc4Cl)ncc3C)c[nH]2)c1` (stereo not shown) [III-a-209, 4-[2-(2-Chloro-phenylamino)-5-methyl-pyrimidin-4-yl]-1H-pyrrole-2-carboxylic acid (2-hydroxy-1-m-tolyl-ethyl)-amide], the Ki at ERK2 and on GSK-3β (AA 1–420) was below 0.1 µM each time.

Take `Cc1ccc(Nc2ncc(C)c(-c3c[nH]c(C(=O)NC(CO)c4ccccc4)c3)n2)cc1C` (stereo not shown) [III-a-151, 4-[2-(3,4-Dimethyl-phenylamino)-5-methyl-pyrimidin-4-yl]-1H-pyrrole-2-carboxylic acid (2-hydroxy-1-phenyl-ethyl)-amide]: the Ki on ERK2 and on GSK-3β (AA 1–420) was below 0.1 µM throughout.

With `CCNc1ncc(CO)c(-c2c[nH]c(C(=O)NC(CO)c3ccccc3)c2)n1` (stereo not shown) [III-a-189, 4-(2-Ethylamino-5-hydroxymethyl-pyrimidin-4-yl)-1H-pyrrole-2-carboxylic acid (2-hydroxy-1-phenyl-ethyl)-amide], the Ki is below 0.1 µM at ERK2 and above 1 µM at GSK-3β (AA 1–420).

With `Cc1cnc(NC(CO)c2ccc(F)c(Cl)c2)nc1-c1c[nH]c(C(=O)NC(CO)c2ccccc2)c1` (stereo not shown) [III-a-230, 4-{2-[1-(3-Chloro-4-fluoro-phenyl)-2-hydroxy-ethylamino]-5-methyl-pyrimidin-4-yl}-1H-pyrrole-2-carboxylic acid (2-hydroxy-1-phenyl-ethyl)-amide], the Ki on ERK2 was below 0.1 µM; at GSK-3β (AA 1–420), 0.1 to 1 µM.

Take `Cc1cnc(Nc2cccnc2)nc1-c1c[nH]c(C(=O)NC(CO)c2ccccc2)c1` (stereo not shown) [III-a-215, 4-[5-Methyl-2-(pyridin-3-ylamino)-pyrimidin-4-yl]-1H-pyrrole-2-carboxylic acid (2-hydroxy-1-phenyl-ethyl)-amide]: the Ki on ERK2 and at GSK-3β (AA 1–420) was below 0.1 µM each time.

Consider `CCNc1ncc(C)c(-c2c[nH]c(C(=O)NC(CO)c3cccc(C(F)(F)F)c3)c2)n1` (stereo not shown) [III-a-198, 4-(2-Ethylamino-5-methyl-pyrimidin-4-yl)-1H-pyrrole-2-carboxylic acid [2-hydroxy-1-(3-trifluoromethyl-phenyl)-ethyl]-amide], for which the Ki at ERK2 was below 0.1 µM; on GSK-3β (AA 1–420), above 1 µM.

With `Cc1cccc(C(CO)NC(=O)c2cc(-c3nc(Nc4cccc(N(C)C)c4)ncc3C)c[nH]2)c1` (stereo not shown) [III-a-208], the Ki on ERK2 and at GSK-3β (AA 1–420) was below 0.1 µM each time.

`Cc1cnc(NCC(C)C)nc1-c1c[nH]c(C(=O)NC(CO)c2ccccc2)c1` (stereo not shown) [III-a-158, 4-(2-Isobutylamino-5-methyl-pyrimidin-4-yl)-1H-pyrrole-2-carboxylic acid (2-hydroxy-1-phenyl-ethyl)-amide]: the Ki at ERK2 and on GSK-3β (AA 1–420) was below 0.1 µM in each case.

With `Cc1cnc(NC(C)CO)nc1-c1c[nH]c(C(=O)NC(CO)c2ccccc2)c1` (stereo not shown) [III-a-176, 4-[2-(2-Hydroxy-1-methyl-ethylamino)-5-methyl-pyrimidin-4-yl]-1H-pyrrole-2-carboxylic acid (2-hydroxy-1-phenyl-ethyl)-amide], the Ki at ERK2 and at GSK-3β (AA 1–420) was below 0.1 µM each time.

Take `Cc1cnc(NCCO)nc1-c1c[nH]c(C(=O)NC(CO)c2ccccc2)c1` (stereo not shown) [III-a-175, 4-[2-(2-Hydroxy-ethylamino)-5-methyl-pyrimidin-4-yl]-1H-pyrrole-2-carboxylic acid (2-hydroxy-1-phenyl-ethyl)-amide]: the Ki at ERK2 was below 0.1 µM; on GSK-3β (AA 1–420) it was 0.1 to 1 µM.

On to `Cc1cnc(NC(CO)c2ccccc2)nc1-c1c[nH]c(C(=O)NC(CO)c2cccc(C(F)(F)F)c2)c1` (stereo not shown) [III-a-201, 4-[2-(2-Hydroxy-1-phenyl-ethylamino)-5-methyl-pyrimidin-4-yl]-1H-pyrrole-2-carboxylic acid [2-hydroxy-1-(3-trifluoromethyl-phenyl)-ethyl)-amide], for which the values for the Ki at ERK2 and at GSK-3β (AA 1–420) were below 0.1 µM and 0.1 to 1 µM, respectively.

Regarding `COc1cccc(Nc2ncc(C)c(-c3c[nH]c(C(=O)NC(CO)c4ccccc4)c3)n2)c1` (stereo not shown) [III-a-137, 4-[2-(3-Methoxy-phenylamino)-5-methyl-pyrimidin-4-yl]-1H-pyrrole-2-carboxylic acid (2-hydroxy-1-phenyl-ethyl)-amide], at GSK-3β (AA 1–420), the Ki was below 0.1 µM.

As for `Cc1cnc(NN2CCOCC2)nc1-c1c[nH]c(C(=O)NC(CO)c2ccccc2)c1` (stereo not shown) [III-a-228, 4-[5-Methyl-2-(morpholin-4-ylamino)-pyrimidin-4-yl]-1H-pyrrole-2-carboxylic acid (2-hydroxy-1-phenyl-ethyl)-amide], on GSK-3β (AA 1–420), the Ki is below 0.1 µM.

Turning to `CCN(C(=O)c1cc(-c2ccnc(N)n2)c[nH]1)C(C)C(O)c1ccccc1` (stereo not shown) [III-a-181, 4-(2-Amino-pyrimidin-4-yl)-1H-pyrrole-2-carboxylic acid (2-hydroxy-1-methyl-2-phenyl-ethyl)-ethyl-amide], the Ki on GSK-3β (AA 1–420) was above 1 µM.
